{"source": "paper PMC3693772", "about": "“Protein expression, biochemical pharmacology of signal transduction, and relation to intraocular pressure modulation by bradykinin B2 receptors in ciliary muscle” (Molecular Vision, 2013)", "key": {"primary h-CM cells": {"test_system": "primary h-CM cells", "assay_type": "cell-based, human", "conditions": "for Effect on background level of total PGs, h-CM cells: alone, up to 100 nM, single experiment; for Effect on total PGs induced by 1 µM BK, h-CM cells: pretreatment, challenge with 1 µM BK", "quoted_text": "(§1) Measurement of prostaglandins in human ciliary muscle and Chinese hamster ovary cells expressing B2 receptors\n(§2) This involved stimulating h-CM cells and CHO-B2 cells with various concentrations of test peptides and measuring the release of various PGs in the extracellular medium. The concentration-dependent effects of these peptides on total PGs, and specifically PGE2, PGF2α, and PGD2 release, were studied. Cells were grown as a monolayer in a 24-well plate (precoated with fibronectin) to confluence and subsequently serum-starved overnight before the experiment. On the day of the experiment, just before the drug was added, the wells were aspirated completely, and 990 µl basal medium and 10 µl 100× series of concentrations of the different peptide agonists were added to achieve the desired final concentrations of each compound (e.g., 0.1 nM to 10 µM). […] At the end of the incubation period, the cellular supernatants were collected and stored at −80 °C or used immediately to determine the PG content. Cell supernatants were tested for total PG levels and sub-species of PGs (PGE2, PGF2α, and PGD2) using specific competitive enzyme immunoassays (Cayman Chemical Co., Ann Arbor, MI) as directed in the manufacturer’s recommended protocols using the supplied standards and reagents. The limits of detection for various PGs were as follows: total PGs=29 pg/ml; PGE2=15 pg/ml; PGF2α=9 pg/ml; PGD2=200 pg/ml."}, "COX-1 and COX-2": {"test_system": "COX-1 and COX-2", "conditions": "ref [43]; cited from earlier work"}, "[1]": {"test_system": "CHO-B2 cells (human cloned B2 receptor)", "assay_type": "cell-based, Chinese hamster ovary cells", "conditions": "compound on its own", "quoted_text": "as §1, §2"}, "human cloned B2 receptor": {"target": "T1, human cloned B2 receptor (Homo sapiens, UniProt P30411)", "T1 construct": "purchased Euroscreen, Gosselies, Belgium; host or cells: CHO cells (recombinant, CHO-B2), used as cell homogenates/membranes", "T1 sequence (P30411 1-391)": "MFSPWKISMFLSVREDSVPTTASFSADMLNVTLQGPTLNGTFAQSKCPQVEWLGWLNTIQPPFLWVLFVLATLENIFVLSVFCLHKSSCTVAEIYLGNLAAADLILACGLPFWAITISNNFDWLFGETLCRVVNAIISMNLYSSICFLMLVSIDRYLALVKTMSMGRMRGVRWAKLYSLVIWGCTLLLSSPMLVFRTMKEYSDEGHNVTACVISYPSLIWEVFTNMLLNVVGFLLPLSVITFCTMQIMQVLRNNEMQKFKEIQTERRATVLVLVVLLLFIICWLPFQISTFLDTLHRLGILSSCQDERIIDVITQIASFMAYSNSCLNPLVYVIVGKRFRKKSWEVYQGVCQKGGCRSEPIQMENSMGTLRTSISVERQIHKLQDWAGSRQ", "test": "[^3H]-BK binding to human cloned B2 receptor (CHO-B2 membranes)", "conditions": "0.2 nM [^3H]-BK, CHO-B2 homogenates 2.5 µg protein, 60 min, 23 °C, 50 mM Tris/HCl pH 7.4; mean±SEM, up to 19 experiments; read-out: Ligand binding inhibition constant at human cloned B2 receptors (Ki)", "protocol": "However, in view of the difficulty of obtaining sufficient h-CM cells for these initial studies, we decided to use cell membranes of Chinese hamster ovary cells containing the human cloned B2 receptor (CHO-B2; Euroscreen, Gosselies, Belgium). […] Following this incubation, the samples were filtered rapidly under vacuum through glass fiber filters (PerkinElmer) presoaked with 0.3% polyethyleneimine and rinsed several times with an ice-cold 50 mM Tris-HCl buffer using a 96-sample cell harvester (TomTec; Gaithersburg, MD). The filters were air-dried and the radioactivity counted in a beta-scintillation counter (TopCount, PerkinElmer). Data were analyzed using a sigmoidal-fit, iterative algorithm of a computer program designed to automatically fit the new data (Activity base; IDBS, Surrey, UK)."}}, "note": "Square brackets hold non-standard residues; d marks the D form. Peptide text beside a SMILES is read from it. * marks the point of attachment. X1 = COc1ccc(C[C@@H](CN[C@@H](CCCNC(=N)N)C(=O)O)N*)cc1; Hyp = O=C(O)[C@@H]1C[C@@H](O)CN1; 2Thi = N[C@@H](Cc1cccs1)C(=O)O", "data": [{"smiles": "Nc1c(CC(=O)O)cccc1C(=O)c1ccc(Br)cc1", "note": "[bromfenac]", "values": [{"measurement": "Effect on BK concentration-response of PG release, h-CM cells", "setting": "primary h-CM cells; 1 µM final, preincubated 5 min, three experiments", "value": "completely abolished PG synthesis and release"}, {"measurement": "Effect on background level of total PGs, h-CM cells", "setting": "primary h-CM cells", "value": "inhibited the background level of total PGs"}, {"measurement": "Effect on total PGs induced by 1 µM BK, h-CM cells", "setting": "primary h-CM cells; three experiments", "value": "concentration-dependent reduction in total PGs synthesized and secreted"}, {"measurement": "COX-1/COX-2 inhibition selectivity", "setting": "COX-1 and COX-2", "value": "COX-2-selective"}, {"measurement": "PG production/release by compound alone, CHO-B2 cells", "setting": "[1]", "value": "failed to influence PG production"}]}, {"smiles": "CC(C(=O)O)c1ccc(-c2ccccc2)c(F)c1", "note": "(centres unmarked) [flurbiprofen]", "values": [{"measurement": "Effect on background level of total PGs, h-CM cells", "setting": "primary h-CM cells", "value": "inhibited the background level of total PGs"}, {"measurement": "Effect on total PGs induced by 1 µM BK, h-CM cells", "setting": "primary h-CM cells; three experiments", "value": "concentration-dependent reduction in total PGs synthesized and secreted, with flurbiprofen much more potent than bromfenac"}, {"measurement": "COX-1/COX-2 inhibition selectivity", "setting": "COX-1 and COX-2", "value": "equally blocks COX-1 and COX-2"}, {"measurement": "PG production/release by compound alone, CHO-B2 cells", "setting": "[1]", "value": "failed to influence PG production"}]}, {"smiles": "NCCCC[C@H](N)C(=O)N[C@@H](CCCN=C(N)N)C(=O)N1CCC[C@H]1C(=O)N1CCC[C@H]1C(=O)NCC(=O)N[C@@H](Cc1ccccc1)C(=O)N[C@@H](CO)C(=O)N1CCC[C@H]1C(=O)N[C@@H](Cc1ccccc1)C(=O)N[C@@H](CCCN=C(N)N)C(=O)O", "note": "[Lys-BK]", "values": [{"measurement": "Ki", "setting": "human cloned B2 receptor", "value": "1.8 ± 0.7", "unit": "nM"}]}, {"smiles": "COc1ccc(C[C@@H](CN[C@@H](CCCNC(=N)N)C(=O)O)NC(=O)[C@@H]2CCCN2C(=O)[C@H](CO)NC(=O)[C@H](Cc2cccs2)NC(=O)CNC(=O)[C@@H]2C[C@@H](O)CN2C(=O)[C@@H]2CCCN2C(=O)[C@@H](N)CCCNC(=N)N)cc1", "note": "[RMP-7] (H-RP[Hyp]G[2Thi]SP-X1)", "values": [{"measurement": "Ki", "setting": "human cloned B2 receptor", "value": "11.3 ± 1.1", "unit": "nM"}]}]}
